The results in this text go back to patent US12559504B2, “Benzotriazole derivative” (UBE CORPORATION, priority 2019, dated 2026).

Data set [1] has as its target T1, GST fusion human Keap1 (amino acid residue: 325-624) protein (Homo sapiens, UniProt Q14145).
T1 construct: GST fusion human Keap1 (amino acid residue: 325-624) protein; purchased Protein tech Ag0779
Kind of data set: Keap1-Nrf2 binding inhibition test (fluorescence polarization). As to conditions: compound concentration of 100 nM; read-out: inhibition rate. In a few lines:
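Fluorescence polarization with FITC-labelled Nrf2 peptide (FITC-Ahx-LDEETGEFL-NH2) and GST-human Keap1 (325-624) in 20 mM Tris pH 7.5, 150 mM NaCl, 0.05% Tween 20, 5 mM DTT, BSA; 30 min at room temperature, ex 482/em 530 nm. Percent inhibition at 100 nM compound, Keap1-free wells = 100%.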

Data set [2] has as its system NQO1. Kind of data set: NQO1 enzyme induction test (in vitro) in Hepa1c1c7 cells. The note with it: Mus musculus, Hepa-1c1c7, 48 h, concentration to elevate the NQO1 activity by 1.5 times, about 48 hours, read-out: EC150. Type of data set: cell-based. In short, it runs like this:
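Mouse Hepa1c1c7 cells treated about 48 h with compound (0.1% DMSO final), then lysed. NQO1 activity read as MTT reduction at 540 nm with menadione substrate, 5 min at room temperature, and corrected for cell number by CellTiter-Glo. EC150 is the concentration raising NQO1 activity 1.5-fold.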

Data set [3] relates to NQO1. Kind of data set: NQO1 expression induction test in mouse kidney (single administration). As to conditions: Mus musculus, po, 6 h, Dose 20 mg/kg, BALB/c mouse kidney, 6 hours after administration, ratio to control group. Type of data set: in vivo. In short, it runs like this: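 Female BALB/c mice received a single oral dose of compound in 0.5% methylcellulose, with untreated mice as controls. Six hours later, left-kidney NQO1 mRNA was measured by SYBR real-time RT-PCR normalised to GAPDH. Induction was expressed as the ratio of mean treated to mean control expression.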

Data set [4] can be described thus: Metabolism test using human liver microsome fractions. As to conditions: human liver microsomes, test compound 10 μmol/L, NADPH and UDP-glucuronic acid, 37° C. Type of data set: in vitro ADME. In short, it runs like this:
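Human or monkey liver microsomes (1 mg protein) with NADPH-regenerating system plus UDP-glucuronic acid/UGT mix, 37 °C; compound at 10 μmol/L final. Samples at 0–30 min quenched in acetonitrile, UV-HPLC; elimination rate (pmol/min/mg-P) from linear slope of residual amount over time.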

A value given as a limit tells only on which side of the number the result lay.

T1 sequence (Q14145 325-624): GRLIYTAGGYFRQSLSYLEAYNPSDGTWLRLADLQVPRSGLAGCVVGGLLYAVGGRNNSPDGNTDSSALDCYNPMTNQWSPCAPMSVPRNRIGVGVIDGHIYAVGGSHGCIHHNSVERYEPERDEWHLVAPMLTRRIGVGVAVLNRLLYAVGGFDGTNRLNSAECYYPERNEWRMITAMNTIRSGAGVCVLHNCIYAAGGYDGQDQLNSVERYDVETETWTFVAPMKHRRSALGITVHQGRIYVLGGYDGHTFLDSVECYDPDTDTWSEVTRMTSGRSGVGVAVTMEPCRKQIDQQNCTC

As to `CC[C@@H]1CN(Cc2cccc(C(c3ccc4c(nnn4C)c3C)C(C)(C)C(=O)O)c2)Cc2cc3ncccc3cc2O1` (stereo partly drawn) [Example 79-(b), 3-(1,4-dimethyl-1H-benzo[d][1,2,3]triazol-5-yl)-3-(3-(((R)-2-ethyl-2,3-dihydro-[1,4]oxazepino[7,6-g]quinolin-4(5H)-yl)methyl)phenyl)-2,2-dimethylpropanoic Acid], the inhibition at 0.1 µM in data set [1] was at least 50%. The EC (1.5-fold NQO1 activity) in the data set with NQO1 [2] fell in the range of 0.005 to 0.05 µM. Besides, the fold induction at 20 mg/kg with NQO1 [3] is 3 to 6. Further, the Human metabolic rate result in data set [4] was “E (metabolic rate≥250 pmol/min/mg protein)”.
`CC[C@@H]1CN(Cc2cc(C(c3ccc4c(nnn4C)c3C)C(C)(C)C(=O)O)ccc2Cl)Cc2cc3ncccc3cc2O1` (stereo partly drawn) [Example 80-(b), 3-(4-chloro-3-(((R)-2-ethyl-2,3-dihydro-[1,4]oxazepino[7,6-g]quinolin-4 (5H)-yl)methyl)phenyl)-3-(1,4-dimethyl-1H-benzo[d][1,2, 3]triazol-5-yl)-2,2-dimethylpropanoic Acid]: the inhibition at 0.1 µM in data set [1] is at least 50%. For the same compound, in the data set with NQO1 [2], the EC (1.5-fold NQO1 activity) lay within 0.005 to 0.05 µM. Further, the fold induction at 20 mg/kg in the data set on NQO1 [3] is above 6. Also, the Human metabolic rate entry in data set [4] is listed as “D (200≤metabolic rate<250 pmol/min/me protein)”.
As for `CC[C@@H]1CN(Cc2cc(C(c3ccc4c(nnn4C)c3C)C(C)(C)C(=O)O)ccc2OC)Cc2cc3ncccc3cc2O1` (stereo partly drawn) [Example 81-(b), 3-(1,4-dimethyl-1H-benzo[d][1,2,3]triazol-5-yl)-3-(3-(((R)-2-ethyl-2,3-dihydro-[1,4]oxazepino[7,6-g]quinolin-4 (5H)-yl)methyl)-4-methoxyphenyl)-2,2-dimethylpropanoic Acid], the inhibition at 0.1 µM in data set [1] is at least 50%. For the same compound, the EC (1.5-fold NQO1 activity) in the data set on NQO1 [2] was 0.005 to 0.05 µM. In addition, the fold induction at 20 mg/kg in the data set with NQO1 [3] is 3 to 6. The Human metabolic rate result in data set [4] was “A (metabolic rate<100 pmol/min/mg protein)”.
Taken in the same sequence, the figures for `CC[C@@H]1CN(Cc2cc(C(c3ccc4c(c3)nnn4C)C(C)(C)C(=O)O)ccc2C)Cc2cc3ncccc3cc2O1` (stereo partly drawn) [Example 82-(b), 3-(3-(((R)-2-ethyl-2,3-dihydro-[1,4]oxazepino[7,6-g]quinolin-4 (5H)-yl)methyl)-4-methylphenyl)-2,2-dimethyl-3-(1-methyl-1H-benzo[d][1,2,3]triazol-5-yl) propanoic Acid] were at least 50%, 0.005 to 0.05 µM, above 6 and “B (100≤metabolic rate<150 pmol/min/mg protein)”.
For `CC[C@@H]1CN(Cc2cc(C(c3ccc4c(nnn4C)c3C)C3(C(=O)O)CCC3)ccc2C)Cc2cc3ncccc3cc2O1` (stereo partly drawn) [Example 84-(b), 1-((1,4-dimethyl-1H-benzo[d][1,2,3]triazol-5-yl) (3-(((R)-2-ethyl-2,3-dihydro-[1,4]oxazepino[7,6-g]quinolin-4 (5H)-yl)methyl)-4-methylphenyl)methyl)cyclobutane-1-carboxylic Acid], the inhibition at 0.1 µM in data set [1] was at least 50%. For the same compound, the EC (1.5-fold NQO1 activity) in the data set with NQO1 [2] was in the range of 0.0005 to 0.005 µM. Besides, in the data set with NQO1 [3], the fold induction at 20 mg/kg was above 6. The Human metabolic rate entry in data set [4] is “C (150≤metabolic rate<200 pmol/min/mg protein)”.
